In publication PMC4065032, “Biochemical Characterization of Quinolinic Acid Phosphoribosyltransferase from Mycobacterium tuberculosis H37Rv and Inhibition of Its Activity by Pyrazinamide” (PLoS ONE, 2014):
“And” between values parts separate entries of the source, which are not always exact repeats. Identical values can stand only once. Like-named read-outs stand apart in the source and are kept apart here.

Experiments:
[1] = biological target: T1, WT MtQAPRTase (Mycobacterium tuberculosis, UniProt P9WJJ7); assay: Kinetic parameters of MtQAPRTase (spectrophotometric assay at 266 nm); format: biochemical, Mycobacterium tuberculosis H37Rv
T1 sequence (P9WJJ7 1-285): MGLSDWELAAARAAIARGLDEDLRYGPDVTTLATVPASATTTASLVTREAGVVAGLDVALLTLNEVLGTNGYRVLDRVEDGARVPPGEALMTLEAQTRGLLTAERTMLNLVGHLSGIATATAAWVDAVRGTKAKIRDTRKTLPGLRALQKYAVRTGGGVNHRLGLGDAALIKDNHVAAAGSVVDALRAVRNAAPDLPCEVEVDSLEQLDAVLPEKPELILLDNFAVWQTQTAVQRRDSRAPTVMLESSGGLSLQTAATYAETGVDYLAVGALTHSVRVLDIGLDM

[2] = biological target: T2, MtQAPRTase (Mycobacterium tuberculosis, UniProt P9WJJ7)
T2 sequence (P9WJJ7 1-285): T1 sequence (P9WJJ7 1-285)

[3] = biological target: T2, MtQAPRTase; assay: PZA or POA added instead of QA or PRPP as substrate (HPLC); format: biochemical, Mycobacterium tuberculosis H37Rv; set-up: Full-length nadC from M. tuberculosis H37Rv was inserted into the expression vector pET-30a; made in house; host or cells: E. coli BL21 (DE3), pET-30a
[4] = biological target: T2, MtQAPRTase; assay: Inhibition of MtQAPRTase activity by PZA/POA (HPLC quantification of NAMN); format: biochemical, Mycobacterium tuberculosis H37Rv; set-up: Full-length nadC from M. tuberculosis H37Rv was inserted into the expression vector pET-30a; made in house; host or cells: E. coli BL21 (DE3), pET-30a; settings: for Ki: read-out: Ki estimated from IC50 by web-based tool

Row | SMILES | Relative Activity [2] [%] | Specific activity [2] [Unit/mg] | also measured
1 | O=C(O)c1cccnc1C(=O)O [QA, 2,3-pyridinedicarboxylic acid] | – | – | Km ([1]; pH 7.2): 80 µM; kcat ([1]; pH 7.2): 0.12 s^-1 and 0.12
2 | [Cl][Mn][Cl] [Mn^2+ (MnCl2), MnCl2] | 27 | 0.35 | –
3 | O=C(O)c1cnccn1 [POA, Pyrazinoic acid] | – | – | Use as substrate by MtQAPRTase [3]: not substrates; IC50 [4]: 3450 µM and > 20000 µM; Ki ([4]; pH 7.2): 175 µM
4 | O=P(O)(O)OC[C@H]1O[C@H](OP(=O)(O)OP(=O)(O)O)[C@H](O)[C@@H]1O [PRPP, 5-phosphoribosyl-1-pyrophosphate] | – | – | kcat ([1]; varied substrate, other substrate fixed (QA 0.3 mM or PRPP 1.0 mM), pH 7.2, 37°C): 0.14 s⁻¹; Km ([1]; varied substrate, other substrate fixed (QA 0.3 mM or PRPP 1.0 mM), pH 7.2, 37°C, read-out: Km): 390 µM
5 | O=S(=O)([O-])[O-].[Cu+2] [Cu^2+ (CuSO4), CuSO4] | 0 | 0 | –
6 | [Cl-].[Cl-].[Co+2] [Co^2+ (CoCl2), CoCl2] | 12 | 0.15 | –
7 | NC(=O)c1cnccn1 [PZA, Pyrazinamide] | – | – | Use as substrate by MtQAPRTase [3]: not substrates; IC50 [4]: 380 µM and 1370 µM; Ki ([4]; pH 6.2): 69.4 µM; Ki ([4]; pH 7.2): 19.2 µM
8 | [Ca+2].[Cl-].[Cl-] [Ca^2+ (CaCl2), CaCl2] | 0 | 0 | –
9 | [Cl-].[Cl-].[Mg+2] [Mg^2+ (MgCl2), MgCl2] | 100 | 1.32 | –
10 | [Cl][Fe][Cl] [Fe^2+ (FeCl2), FeCl2] | 6 | 0.06 | –
11 | [Cl-].[Cl-].[Zn+2] [Zn^2+ (ZnCl2), ZnCl2] | 0 | 0 | –
